Data on 34 molecules can be found in US8410112B2, “Compounds useful as inhibitors of ATR kinase” (Vertex Pharmaceuticals Incorporated, priority 2008, dated 2013).

The target in the assay is T1, full-length ATR (Homo sapiens, UniProt Q13535).
T1 construct: in the presence of 5 nM full-length ATR
T1 sequence (Q13535 whole entry): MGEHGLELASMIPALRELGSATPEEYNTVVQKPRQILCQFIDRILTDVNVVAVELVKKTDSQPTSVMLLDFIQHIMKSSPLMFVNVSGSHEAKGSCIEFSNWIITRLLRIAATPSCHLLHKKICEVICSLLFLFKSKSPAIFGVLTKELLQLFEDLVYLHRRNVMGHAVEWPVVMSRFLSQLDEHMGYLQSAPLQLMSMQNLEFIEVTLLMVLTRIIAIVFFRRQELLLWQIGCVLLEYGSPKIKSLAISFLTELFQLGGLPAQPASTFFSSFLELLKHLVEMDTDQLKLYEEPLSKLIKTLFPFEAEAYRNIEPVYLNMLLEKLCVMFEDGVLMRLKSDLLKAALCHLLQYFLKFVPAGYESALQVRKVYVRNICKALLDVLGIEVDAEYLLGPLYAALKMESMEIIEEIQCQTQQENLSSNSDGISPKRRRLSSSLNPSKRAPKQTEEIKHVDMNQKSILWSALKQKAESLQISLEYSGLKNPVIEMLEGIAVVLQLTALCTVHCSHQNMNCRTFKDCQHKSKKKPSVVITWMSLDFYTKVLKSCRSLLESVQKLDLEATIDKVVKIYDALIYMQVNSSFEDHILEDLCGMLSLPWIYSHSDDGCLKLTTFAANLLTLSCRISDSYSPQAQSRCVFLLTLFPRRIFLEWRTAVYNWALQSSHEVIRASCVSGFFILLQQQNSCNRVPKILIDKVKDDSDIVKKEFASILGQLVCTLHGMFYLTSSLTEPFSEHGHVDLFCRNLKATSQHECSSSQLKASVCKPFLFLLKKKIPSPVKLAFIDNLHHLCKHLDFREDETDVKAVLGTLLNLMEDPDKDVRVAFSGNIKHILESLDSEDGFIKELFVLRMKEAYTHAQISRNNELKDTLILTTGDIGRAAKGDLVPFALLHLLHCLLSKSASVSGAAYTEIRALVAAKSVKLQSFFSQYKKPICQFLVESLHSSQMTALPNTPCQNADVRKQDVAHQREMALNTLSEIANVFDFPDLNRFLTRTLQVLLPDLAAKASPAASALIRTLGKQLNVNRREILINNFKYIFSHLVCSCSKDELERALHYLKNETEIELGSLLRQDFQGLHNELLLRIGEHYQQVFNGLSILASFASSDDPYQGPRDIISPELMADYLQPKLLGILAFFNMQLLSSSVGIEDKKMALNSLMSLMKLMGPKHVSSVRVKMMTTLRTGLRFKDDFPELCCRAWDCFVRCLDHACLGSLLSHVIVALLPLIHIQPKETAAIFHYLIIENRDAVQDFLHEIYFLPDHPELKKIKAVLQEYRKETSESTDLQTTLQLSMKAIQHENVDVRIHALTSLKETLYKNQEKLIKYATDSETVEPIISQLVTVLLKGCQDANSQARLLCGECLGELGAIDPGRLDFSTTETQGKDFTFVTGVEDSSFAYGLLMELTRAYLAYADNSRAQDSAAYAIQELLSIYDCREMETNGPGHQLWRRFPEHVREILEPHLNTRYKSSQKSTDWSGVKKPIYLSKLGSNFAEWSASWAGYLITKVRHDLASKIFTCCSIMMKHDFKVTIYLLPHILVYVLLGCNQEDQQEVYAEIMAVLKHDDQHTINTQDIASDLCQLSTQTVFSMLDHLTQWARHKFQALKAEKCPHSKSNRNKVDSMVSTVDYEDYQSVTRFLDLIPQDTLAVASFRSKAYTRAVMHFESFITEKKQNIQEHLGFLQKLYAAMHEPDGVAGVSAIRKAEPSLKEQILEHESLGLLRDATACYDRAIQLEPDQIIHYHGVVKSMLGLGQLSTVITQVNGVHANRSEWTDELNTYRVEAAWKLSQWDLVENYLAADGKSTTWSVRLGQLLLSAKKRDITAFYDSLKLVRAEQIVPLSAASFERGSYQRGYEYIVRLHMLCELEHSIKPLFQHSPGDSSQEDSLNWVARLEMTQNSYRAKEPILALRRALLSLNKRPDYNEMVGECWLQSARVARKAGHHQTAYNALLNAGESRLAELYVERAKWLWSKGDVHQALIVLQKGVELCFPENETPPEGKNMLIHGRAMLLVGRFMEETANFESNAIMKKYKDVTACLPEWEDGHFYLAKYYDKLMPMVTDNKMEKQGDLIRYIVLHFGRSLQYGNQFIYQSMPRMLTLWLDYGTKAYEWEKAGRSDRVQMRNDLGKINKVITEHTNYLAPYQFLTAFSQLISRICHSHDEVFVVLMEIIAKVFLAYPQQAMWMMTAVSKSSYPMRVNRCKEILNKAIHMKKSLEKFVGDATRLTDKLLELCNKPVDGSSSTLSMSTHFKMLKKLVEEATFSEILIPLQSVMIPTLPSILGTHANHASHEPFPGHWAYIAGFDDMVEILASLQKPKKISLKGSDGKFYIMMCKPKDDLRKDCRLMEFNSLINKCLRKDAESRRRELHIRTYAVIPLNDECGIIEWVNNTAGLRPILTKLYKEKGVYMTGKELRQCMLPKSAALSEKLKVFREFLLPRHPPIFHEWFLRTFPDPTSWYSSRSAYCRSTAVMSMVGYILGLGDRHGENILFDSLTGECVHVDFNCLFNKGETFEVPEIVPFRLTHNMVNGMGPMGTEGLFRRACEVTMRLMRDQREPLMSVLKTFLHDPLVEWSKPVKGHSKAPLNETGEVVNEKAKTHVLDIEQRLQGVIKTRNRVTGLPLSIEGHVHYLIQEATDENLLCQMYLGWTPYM
The assay can be described thus: ATR Inhibition Assay (radioactive-phosphate incorporation). The class given is biochemical. The following applies: Ki(app); 5 nM full-length ATR, 10 μM ATP, 800 μM target peptide, 25° C. The essentials: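 After a 10-min pre-incubation of compound with 5 nM enzyme at 25 °C, ATP was added to start the reaction (final 10 μM [γ-33P]ATP, 800 μM peptide; Tris/HCl pH 7.5, MgCl2, DTT), which ran 24 h. Incorporated 33P was captured on phosphocellulose filters, and Ki(app) was fitted by non-linear regression.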
In the case of `CCC(CC)C(=O)N1CCN(c2cnc(N)c(C(=O)Nc3ccccn3)n2)CC1` [Compound I-212, 3-amino-6-(4-(2-ethylbutanoyl)piperazin-1-yl)-N-(pyridin-2-yl)pyrazine-2-carboxamide], the Ki lay in the range of 1000 to 10000 nM. With `Cc1ccc2nc(-c3nc(N4CCC(=O)CC4)cnc3N)[nH]c2c1` [Compound I-11, 1-(5-amino-6-(6-methyl-1H-benzo[d]imidazol-2-yl)pyrazin-2-yl)piperidin-4-one] the figure was 1000 to 10000 nM; with `CCS(=O)(=O)N1CC=C(c2cnc(N)c(C(=O)Nc3ccccn3)n2)CC1` [Compound I-171, 3-amino-6-(1-(ethylsulfonyl)-1,2,3,6-tetrahydropyridin-4-yl)-N-(pyridin-2-yl)pyrazine-2-carboxamide], 100 to 1000 nM. The result for `Nc1ncc(N2C[C@@H]3CCC(=O)[C@@H]3C2)nc1-c1nnc(-c2ccccc2)o1` [Compound I-319, (3aS,6aR)-2-(5-Amino-6-(5-phenyl-1,3,4-oxadiazol-2-yl)pyrazin-2-yl)hexahydrocyclopenta[c]pyrrol-4(5H)-one] reads 100 to 1000 nM. The result for `CCS(=O)(=O)N1CCN(c2cnc(N)c(-c3nnc(-c4ccc(F)cc4)o3)n2)CC1` [Compound I-292, 5-(4-ethylsulfonylpiperazin-1-yl)-3-[5-(4-fluorophenyl)-1,3,4-oxadiazol-2-yl]pyrazin-2-amine] reads 100 to 1000 nM; that for `Cc1ccc2nc(-c3nc(N4CCC(C(F)(F)F)CC4)cnc3N)[nH]c2c1` [Compound I-31, 3-(6-methyl-1H-benzo[d]imidazol-2-yl)-5-(4-(trifluoromethyl)piperidin-1-yl)pyrazin-2-amine], 1000 to 10000 nM; that for `Nc1ncc(N2CCNCC2)nc1C(=O)Nc1ccccn1` [Compound I-42, 3-amino-6-(piperazin-1-yl)-N-(pyridin-2-yl)pyrazine-2-carboxamide], 1000 to 10000 nM.

`CCS(=O)(=O)N1CCN(c2cnc(N)c(-c3nnc(-c4cccc(N)c4)[nH]3)n2)CC1` [Compound I-57, 3-(5-(3-aminophenyl)-4H-1,2,4-triazol-3-yl)-5-(4-(ethylsulfonyl)piperazin-1-yl)pyrazin-2-amine]: the Ki lay within 100 to 1000 nM. For `CNCc1ccc(-c2nnc(-c3nc(N4CCC5(CCN(C)C5=O)CC4)cnc3N)o2)cc1` [Compound I-344, 8-[5-Amino-6-[5-[4-(methylaminomethyl)phenyl]-1,3,4-oxadiazol-2-yl]pyrazin-2-yl]-2-methyl-2,8-diazaspiro[4.5]decan-1-one], the Ki was less than 100 nM.

In the case of `Nc1ncc(N2CC[C@H](NC(=O)COc3ccccc3)C2)nc1-c1nc2ccccc2[nH]1` [Compound I-205, (S)-N-(1-(5-amino-6-(1H-benzo[d]imidazol-2-yl)pyrazin-2-yl)pyrrolidin-3-yl)-2-phenoxyethanamide], the Ki was 100 to 1000 nM. The result for `CN(C)CC(=O)N1CCN(c2cnc(N)c(C(=O)Nc3ccccn3)n2)CC1` [Compound I-150, 3-amino-6-(4-(2-(dimethylamino)ethanoyl)piperazin-1-yl)-N-(pyridin-2-yl)pyrazine-2-carboxamide] reads 1000 to 10000 nM; that for `CCC(=O)N1CCN(c2cnc(N)c(-c3nnc(-c4ccc(CNC)cc4)o3)n2)[C@H](C)C1` [Compound I-359, (R)-1-(4-(5-Amino-6-(5-(4-((methylamino)methyl)phenyl)-1,3,4-oxadiazol-2-yl)pyrazin-2-yl)-3-methylpiperazin-1-yl)propan-1-one], 100 to 1000 nM; that for `Nc1ncc(N2CCN(S(=O)(=O)c3ccoc3)CC2)nc1-c1nnc(-c2ccccc2)o1` [Compound I-90, 5-(4-(furan-3-ylsulfonyl)piperazin-1-yl)-3-(5-phenyl-1,3,4-oxadiazol-2-yl)pyrazin-2-amine], 100 to 1000 nM. The result for `COCCOCC(=O)N1CC=C(c2cnc(N)c(-c3nnc(-c4ccccc4)o3)n2)CC1` [Compound I-135, 1-(4-(5-amino-6-(5-phenyl-1,3,4-oxadiazol-2-yl)pyrazin-2-yl)-5,6-dihydropyridin-1(2H)-yl)-2-(2-methoxyethoxy)ethanone] reads less than 100 nM. Take `Cn1cnc(S(=O)(=O)N2CCN(c3cnc(N)c(-c4nnc(-c5ccccc5)o4)n3)CC2)c1` [Compound I-87, 5-(4-(1-methyl-1H-imidazol-4-ylsulfonyl)piperazin-1-yl)-3-(5-phenyl-1,3,4-oxadiazol-2-yl)pyrazin-2-amine]: the Ki lay in the range of 100 to 1000 nM. With `NCCC(=O)N1CC=C(c2cnc(N)c(-c3nc4ccccc4[nH]3)n2)CC1` [Compound I-338, 3-amino-1-(4-(5-amino-6-(1H-benzo[d]imidazol-2-yl)pyrazin-2-yl)-5,6-dihydropyridin-1(2H)-yl)propan-1-one], the Ki was 100 to 1000 nM. For `Nc1ncc(C2=CCN(S(=O)(=O)c3cccs3)CC2)nc1-c1nc2ccccc2[nH]1` [Compound I-79, 3-(1H-benzo[d]imidazol-2-yl)-5-(1-(thiophen-2-ylsulfonyl)-1,2,3,6-tetrahydropyridin-4-yl)pyrazin-2-amine], the Ki was less than 100 nM. As for `CCS(=O)(=O)N1CCN(c2cnc(N)c(-c3nnc(-c4ccccc4C)o3)n2)CC1` [Compound I-287, 5-(4-ethylsulfonylpiperazin-1-yl)-3-[5-(o-tolyl)-1,3,4-oxadiazol-2-yl]pyrazin-2-amine], the Ki lay within 100 to 1000 nM. The result for `Nc1ncc(N2CCN(C(=O)COc3ccccc3)CC2)nc1-c1nc2ccccc2[nH]1` [Compound I-273, 1-(4-(5-amino-6-(1H-benzo[d]imidazol-2-yl)pyrazin-2-yl)piperazin-1-yl)-2-phenoxyethanone] reads 1000 to 10000 nM; that for `Nc1ncc(C2=CCN(C(=O)N3CCOCC3)CC2)nc1-c1nc2ccccc2[nH]1` [Compound I-227, (4-(5-amino-6-(1H-benzo[d]imidazol-2-yl)pyrazin-2-yl)-5,6-dihydropyridin-1(2H)-yl)(morpholino)methanone], 100 to 1000 nM. With `COC1CCN(c2cnc(N)c(-c3nc4ccc(C)cc4[nH]3)n2)CC1` [Compound I-12, 5-(4-methoxypiperidin-1-yl)-3-(6-methyl-1H-benzo[d]imidazol-2-yl)pyrazin-2-amine] the figure was 1000 to 10000 nM; with `CCC(=O)N1CCC2(CCN(c3cnc(N)c(-c4nnc(-c5ccc(CNC)cc5)o4)n3)C2)C1` (stereo not shown) [Compound I-342, 1-(7-(5-Amino-6-(5-(4-((methylamino)methyl)phenyl)-1,3,4-oxadiazol-2-yl)pyrazin-2-yl)-2,7-diazaspiro[4.4]nonan-2-yl)propan-1-one], 100 to 1000 nM; with `Cc1cccc(C)c1C(=O)N1CCN(c2cnc(N)c(-c3nc4ccccc4[nH]3)n2)CC1` [Compound I-275, (4-(5-amino-6-(1H-benzo[d]imidazol-2-yl)pyrazin-2-yl)piperazin-1-yl)(2,6-dimethylphenyl)methanone], 1000 to 10000 nM. The result for `Cc1ccc2nc(-c3nc(N4CCN(c5ncccn5)CC4)cnc3N)[nH]c2c1` [Compound I-35, 3-(6-methyl-1H-benzo[d]imidazol-2-yl)-5-(4-(pyrimidin-2-yl)piperazin-1-yl)pyrazin-2-amine] reads 1000 to 10000 nM; that for `Nc1ncc(N2CCN(S(=O)(=O)C3CCCC3)CC2)nc1C(=O)Nc1ccccn1` [Compound I-248, 3-amino-6-(4-(cyclopentylsulfonyl)piperazin-1-yl)-N-(pyridin-2-yl)pyrazine-2-carboxamide], 100 to 1000 nM. Consider `Nc1ncc(N2CC[C@H](NC(=O)c3cccnc3)C2)nc1-c1nc2ccccc2[nH]1` [Compound I-188, (S)-N-(1-(5-amino-6-(1H-benzo[d]imidazol-2-yl)pyrazin-2-yl)pyrrolidin-3-yl)pyridine-3-carboxamide], for which the Ki is 100 to 1000 nM. The result for `COCC(=O)N1CCN(c2cnc(N)c(C(=O)Nc3ccccn3)n2)CC1` [Compound I-147, 3-amino-6-(4-(2-methoxyethanoyl)piperazin-1-yl)-N-(pyridin-2-yl)pyrazine-2-carboxamide] reads 1000 to 10000 nM; that for `Nc1ncc(N2CC[C@H](NS(=O)(=O)c3ccccc3)C2)nc1-c1nc2ccccc2[nH]1` [Compound I-107, (S)-N-(1-(5-amino-6-(1H-benzo[d]imidazol-2-yl)pyrazin-2-yl)pyrrolidin-3-yl)benzenesulfonamide], 100 to 1000 nM. With `CN(C)C(=O)N1CCN(c2cnc(N)c(-c3nnc(-c4ccccc4)o3)n2)CC1` [Compound I-218, 4-(5-amino-6-(5-phenyl-1,3,4-oxadiazol-2-yl)pyrazin-2-yl)-N,N-dimethylpiperazine-1-carboxamide] the figure was 100 to 1000 nM; with `Nc1ncc(C2=CCN(C(=O)c3c(F)cccc3F)CC2)nc1-c1nnc(-c2ccccc2)o1` [Compound I-133, (4-(5-amino-6-(5-phenyl-1,3,4-oxadiazol-2-yl)pyrazin-2-yl)-5,6-dihydropyridin-1(2H)-yl)(2,6-difluorophenyl)methanone], less than 100 nM; with `Nc1ncc(N2CCN(C(=O)N3CCCC3)CC2)nc1-c1nc2ccccc2[nH]1` [Compound I-267, (4-(5-amino-6-(1H-benzo[d]imidazol-2-yl)pyrazin-2-yl)piperazin-1-yl)(pyrrolidin-1-yl)methanone], 1000 to 10000 nM. The result for `Nc1ncc(N2CCN(S(=O)(=O)c3cccnc3)CC2)nc1C(=O)Nc1ccccn1` [Compound I-233, 3-amino-N-(pyridin-2-yl)-6-(4-(pyridin-3-ylsulfonyl)piperazin-1-yl)pyrazine-2-carboxamide] reads 100 to 1000 nM. Turning to `Nc1ncc(N2CCN(C(=O)C3CCC3)CC2)nc1C(=O)Nc1ccccn1` [Compound I-145, 3-amino-6-(4-(cyclobutanecarbonyl)piperazin-1-yl)-N-(pyridin-2-yl)pyrazine-2-carboxamide], the Ki lay within 100 to 1000 nM. With `CCCS(=O)(=O)N1CC=C(c2cnc(N)c(-c3nnc(-c4ccccc4)o3)n2)CC1` [Compound I-124, 3-(5-phenyl-1,3,4-oxadiazol-2-yl)-5-(1-(propylsulfonyl)-1,2,3,6-tetrahydropyridin-4-yl)pyrazin-2-amine] the figure was less than 100 nM.
